In one series the test system is H9c2 cells. It counts as cell-based, rat. Particulars: 48 h hypoxia, MTT. On the procedure: Autophagy is an integrated stress response that clears the subcellular damages. Previous studies have shown that such damages can be induced by hypoxia and hypoxia-reoxygenation stress. Clearing subcellular damages would increase survivability. In traditional medicine, G. biloba is used as an herbal remedy for acute ischemic stroke and post-stroke recovery. To examine the effects of β-gB1 in hypoxia stress, we used cardio-myoblast H9c2 and SH-SY5Y cells. Cells were cultured with or without β-gB1 and incubated in a hypoxic environment for 48 h before the assessment of cell survival by the MTT assay. […] Importantly, when the concentration of β-gB1 was reduced tenfold from 10 to 1 µM, a 22–24% increase of survivability was still observed in H9c2 and SH-SY5Y cells (Figure 3A–D). […]
Cells were cultured in DMEM with or without β-gB1/S-alkylated β-gB1 (β-gB1Alk) for 48 h under normoxia, hypoxia, and hypoxia-reoxygenation conditions. […] The culture medium was then aspirated, and purple formazan crystals were dissolved in DMSO for colorimetric quantification at 570 nm using a microplate reader with a reference wavelength of 630 nm. […]

Another series relates to caspase-3. Description: Western blot of caspase-3 in SH-SY5Y cells. The class given is cell-based, human. Particulars: triplicates. On the procedure: (§1) In contrast, the β-gB1-treated cells increased the expression of the LC3B-II isoform by 2.8-fold. […] In addition, the β-gB1-treated cells increased the BECN1 expression by 1.5-fold (Figure 2A,B).
(§2) Rat cardio-myoblast cells (H9c2) and […] neuron-like SH-SY5Y cells were purchased from ATCC and maintained in DMEM (Dulbecco’s modified eagle medium) medium supplemented with 10% fetal bovine serum (FBS), 10,000 U/mL of penicillin, and 10,000 µg/mL of streptomycin at 37 °C, 5% CO2.
(§3) A 25 µg equivalent quantity of each protein samples were resolved on a 10% and 15% SDS-PAGE gel accordingly and transferred onto a nitrocellulose membrane. Immunoblotting was performed using anti-protein antibodies against glyceraldehyde 3-phosphate dehydrogenase (GAPDH) (1:5000), LC3B (1:1500), Beclin-1 (1:1500), Caspase-3 (1:1500), and Caspase-9 (1:1500). Blots were developed with Clarity Max Western ECL blotting substrates. Protein bands were quantitated densitometrically using ImageJ software (ImageJ15.0b, Wayen Rasband, NIH, Bethesda, Maryland, USA), expressed relative to GAPDH, and normalized to the vehicle control cells. Statistical calculations and bar graphs were done using GraphPad Prism software (Version 6.01), and three individual experimental data sets were used for the calculation. Data are presented as means ± SD and compared by the Holm–Sidak multiple t-tests method. […]
Background: Immunoblotting shows a protein as a band on a membrane.

A short description of series [1]: Enzymatic (proteolytic) stability against trypsin. Particulars: isolated enzyme trypsin; 800 U/mL trypsin, 0.1 M ammonium bicarbonate buffer pH 7.8, 37 °C, 6 h; 28 µg peptide in 100 µL; MALDI-TOF MS and C18 RP-HPLC; read-out: Peptide remaining intact after trypsin treatment. It counts as in vitro ADME. On the procedure: To assess the proteolytic stability of β-gB1, it was treated with trypsin or pepsin for 6 h. […] Similarly, the S-alkylated β-gB1 was degraded completely by pepsin within 30 min. […] This is in agreement with other plant CRPs that contain a compact structure, whose proteolytic stability was examined up to six hours treatment.
The folded β-gB1 (28 µg) was added to 100 μL of a 0.1 M ammonium bicarbonate buffer (pH 7.8) containing 800 U/mL of trypsin or 4 mg/mL of pepsin and incubated at 37 °C for 6 h. At each time-point (0, 1, 2, 4, and 6 h), 20 µL of the treated sample was aliquoted and quenched by adding 5 µL of 1 M hydrochloric acid or 0.8 μL of 1 M sodium hydroxide. The reduced β-gB1 was alkylated with iodoacetamide (S-alkylated β-gB1) and used as a control in this study. The reaction mixture was analyzed by MALDI-TOF MS and C18-reversed-phase HPLC to determine its stability.

The test system of the next series is SH-SY5Y cells. Kind of series: Hypoxia-reoxygenation injury, MTT assay, SH-SY5Y. The class given is cell-based, human. Particulars: 1 µM peptide, 24 h hypoxia then 24 h normoxia, triplicates. On the procedure:
Cells were cultured with or without β-gB1 and its S-alkylated β-gB1, first under the hypoxic condition for 24 h and then at a normal oxygen environment for another 24 h. The cell viability under hypoxia-reoxygenation condition was assessed by the MTT assay.
as §2
Cells were seeded in a cell culture medium with/without β-gB1 and incubated at 37 °C, 5% CO2 overnight. The next day, the cells were locked inside a BD GasPak EZ anaerobe pouch system (BD Diagnostics, MD) and incubated at 37 °C for the next 48 h for the hypoxia condition. In addition, the cells were cultured under a normal oxygenated environment for the normoxic control. In hypoxia-reoxygenation experiments, the cells were incubated for 24 h in hypoxic conditions before being incubated for another 24 h under normoxia.
Phosphate-buffered saline (PBS) was used as a vehicle control.
A general note: Tetrazolium assays rely on reduction of a dye to a coloured formazan, in cell work by metabolically active cells.

The subject of series [2] is BHK (baby hamster kidney) cell line. To be noted: MTT assay; cited from earlier work. An excerpt:
(§4) In addition, β-gB1 is non-toxic to Vero and BHK (baby hamster kidney) cell lines based on an MTT assay. […] LDH is a cytoplasmic enzyme which is rapidly released int ...

In the next series the test system is Vero cell line. Particulars: MTT assay; cited from earlier work.
From the text: as §4

The subject of a further series is caspase-9. Description: Western blot of caspase-9 in SH-SY5Y cells. The class given is cell-based, human. To be noted: triplicates. On the procedure:
as §1, §2, §3

A further series has as its system Escherichia coli. Particulars: concentrations up to 100 µM; cited from earlier work.

Where two headings read alike, the source gives them in different places. Where a SMILES comes first, the peptide text is derived from it.

In general, share remaining refers to what is left of the initial amount, in per cent. `CC[C@H](C)[C@@H]1NC(=O)[C@@H]2CSSC[C@H](NC(=O)CNC(=O)[C@@H](NC(=O)[C@H](CCC(=O)O)NC(=O)[C@@H](N)Cc3ccc(O)cc3)[C@@H](C)O)C(=O)N[C@@H](CCCCN)C(=O)N[C@@H](CCCNC(=N)N)C(=O)N[C@H]3CSSC[C@@H](C(=O)O)NC(=O)[C@H](CSSC[C@H](NC3=O)C(=O)N[C@@H](Cc3ccc(O)cc3)C(=O)N[C@@H](CC(C)C)C(=O)N[C@@H](CC(=O)O)C(=O)N[C@@H](CCC(=O)O)C(=O)N[C@@H](Cc3ccc(O)cc3)C(=O)NCC(=O)N2)NC(=O)[C@H](CCCNC(=N)N)NC1=O` [β-gB1] (HELM PEPTIDE1{Y.E.T.G.C.K.R.C.C.Y.L.D.E.Y.G.C.I.R.C.C}$PEPTIDE1,PEPTIDE1,5:R3-16:R3|PEPTIDE1,PEPTIDE1,8:R3-20:R3|PEPTIDE1,PEPTIDE1,9:R3-19:R3$$$V2.0; N-terminus and C-terminus assumed): the “Increase of cell survivability under hypoxia” value with H9c2 cells (H9c2, 1 µM peptide, range printed jointly for H9c2 and SH-SY5Y) is listed as 22–24%; in the series on H9c2 cells (H9c2, 10 µM peptide, triplicates) it was 37%. Also, the “Expression of caspase-3 in treated cells” value in the series on caspase-3 was “remained unchanged”. Further, the fraction remaining at 6 h in series [1] is about 90%. The “Increase of cell survivability under hypoxia-reoxygenation” value with SH-SY5Y cells turned out to be 19%. The “Toxicity to cell line” value (in series [2]; with Vero cell line) was “non-toxic” throughout. Moreover, the “Expression of caspase-9 in treated cells” value with caspase-9 was “remained unchanged”. Besides, the Antimicrobial effect entry with Escherichia coli is reported as “does not exhibit an antimicrobial effect”.

The values above are taken from article PMC6651024, “LIR Motif-Containing Hyperdisulfide β-Ginkgotide is Cytoprotective, Adaptogenic, and Scaffold-Ready” (Molecules, 2019).
